# Measured values from article PMC3827683 (Journal of the American Chemical Society, 2013).
# Experiments:
# Experiment in all cases: direct UV assay of deamination
# Type in all cases: biochemical
# Conditions in all cases: 20 mM HEPES pH 7.5, 30 °C
# Avi5431 [1] = molecular target: T1, Avi5431 (Gillisella ampelina, UniProt B9K107)
# T1 sequence (B9K107 1-466): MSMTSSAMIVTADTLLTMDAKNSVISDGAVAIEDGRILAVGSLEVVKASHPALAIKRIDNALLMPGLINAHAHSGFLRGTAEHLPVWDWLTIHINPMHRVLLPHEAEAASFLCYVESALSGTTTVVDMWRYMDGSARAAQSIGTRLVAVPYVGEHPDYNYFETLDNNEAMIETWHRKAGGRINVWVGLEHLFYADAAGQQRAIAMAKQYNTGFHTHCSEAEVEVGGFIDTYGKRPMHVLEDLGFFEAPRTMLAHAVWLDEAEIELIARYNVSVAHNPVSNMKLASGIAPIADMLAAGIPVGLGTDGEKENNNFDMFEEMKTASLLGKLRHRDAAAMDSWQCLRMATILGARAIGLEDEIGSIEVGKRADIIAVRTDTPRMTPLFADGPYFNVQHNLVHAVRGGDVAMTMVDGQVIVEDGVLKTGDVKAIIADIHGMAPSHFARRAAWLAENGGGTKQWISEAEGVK
# Avi5431 [2] = molecular target: T1, Avi5431; remark: listed apart in the source
# Tvn0515 = molecular target: T2, Tvn0515 (Thermoplasma volcanium, UniProt Q97BE1)
# T2 sequence (Q97BE1 1-418): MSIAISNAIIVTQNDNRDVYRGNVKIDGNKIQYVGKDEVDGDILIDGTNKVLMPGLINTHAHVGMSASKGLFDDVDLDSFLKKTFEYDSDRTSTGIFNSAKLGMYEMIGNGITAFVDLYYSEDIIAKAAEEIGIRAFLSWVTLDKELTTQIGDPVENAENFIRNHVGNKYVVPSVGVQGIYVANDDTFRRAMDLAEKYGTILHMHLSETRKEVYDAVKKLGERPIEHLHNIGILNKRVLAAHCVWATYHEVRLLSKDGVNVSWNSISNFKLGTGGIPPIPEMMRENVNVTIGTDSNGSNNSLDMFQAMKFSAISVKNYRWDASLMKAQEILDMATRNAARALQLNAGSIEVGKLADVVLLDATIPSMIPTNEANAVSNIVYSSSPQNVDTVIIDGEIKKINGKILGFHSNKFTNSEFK
structure (smiles),measurement,setting,value
Nc1nc(O)nc2[nH]cnc12 [2-oxoadenine],direct UV assay of deamination (294 nm),Avi5431 [1],"Avi5431 deaminated two adenine related compounds, 8-oxoadenine and 2-oxoadenine"
Nc1ncnc2[nH]c(=O)[nH]c12 [8-oxoadenine],direct UV assay of deamination (272 nm),Avi5431 [2],"Avi5431 deaminated two adenine related compounds, 8-oxoadenine and 2-oxoadenine"
Nc1ncnc2c1ncn2[C@@H]1O[C@H](CSCC[C@H](N)C(=O)O)[C@@H](O)[C@H]1O [SAH],Km,Tvn0515,Tvn0515 (sg-11) deaminates only SAH
